Data as given in patent US20240246941A1, “SUBSTITUTED 4-(3-AMINOPROP-1-YL)AMINOQUINOLINE ANALOGS AS MODULATORS OF MELANOMA-ASSOCIATED ANTIGEN 11 UBIQUITIN LIGASE” (ST. JUDE CHILDREN'S RESEARCH HOSPITAL, INC., priority 2020, published 2024).

target: MAGE-A11:PCF11 (Homo sapiens (Human), UniProt P43364); assay: TR-FRET single point screening at 15 μM; type: binding; parameters: unit not given here; settings: single point TR-FRET screening at 15 μM against MAGE-A11:PCF11
Summary of the method: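 Competition TR-FRET: compounds at final 15 μM mixed with 200 nM FAM-PCF11_4, 5 nM GST-MAGEA11 and 5 nM Tb-anti-GST in Tris pH 7.5/MgCl2/BSA/DTT buffer, room temperature, 90 min. Emission ratio 520/490 nm (340 nm excitation) expressed as % inhibition relative to positive and negative controls.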

MAGE-A11:PCF11, sequence (P43364 218-429): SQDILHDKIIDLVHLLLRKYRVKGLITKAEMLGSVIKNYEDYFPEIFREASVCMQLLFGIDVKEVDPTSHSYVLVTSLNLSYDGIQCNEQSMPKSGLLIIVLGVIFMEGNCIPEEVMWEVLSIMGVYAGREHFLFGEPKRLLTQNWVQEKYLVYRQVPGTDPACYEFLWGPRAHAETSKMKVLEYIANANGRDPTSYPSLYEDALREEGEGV

Row | Structure (SMILES) | TR-FRET signal
1 | CCCN(CCCNc1c2ccc(Cl)cc2nc2ccc(OC)cc12)Cc1ccc(C(=O)OC)cc1 [SJ000523018] | −118.6
2 | CCN1CCN(c2c(C(=O)c3ccc(C)cc3)cnc3ccc(OC)cc23)CC1 [SJ000247282] | 3.9
3 | Fc1ccc(CN(CCCCNc2ccnc3cc(Cl)ccc23)Cc2ccccc2)cc1F [SJ000361197] | 26.09
4 | O=[N+]([O-])c1cccc(CN2CCC(Nc3ccnc4cc(Cl)ccc34)CC2)c1 [SJ000523095] | 0.8927
5 | CN(C)c1cc(NC(=O)CNC(C)(C)CC(C)(C)C)c2ccccc2n1 [SJ000111678] | 10.62
6 | COc1ccc2nc3cc(Cl)ccc3c(NCCCNCc3ccccc3)c2c1 [SJ000361086] | −432.4
7 | CCN1CCN(c2c(C(=O)c3ccccc3)cnc3ccc(OC)cc23)CC1 [SJ000247365] | −0.2733
8 | CCOC(=O)c1cnc2c(C)cc(Cl)cc2c1NCCN(C)C [SJ000027210] | 3.834
9 | CCCN(CCCNc1c2ccc(Cl)cc2nc2ccc(OC)cc12)CC1CCCCC1 [SJ000520938] | −163.9
10 | CCOc1ccc2ncc(S(=O)(=O)c3ccc(Cl)cc3)c(N3CCN(CC)CC3)c2c1 [SJ000083969] | −4.989
11 | CCCN(CCCNc1c2ccc(Cl)cc2nc2ccc(OC)cc12)Cc1ccc(Br)o1 [SJ000520929] | −137.3
12 | CCN1CCN(c2c(S(=O)(=O)c3ccc(Cl)cc3)cnc3ccccc23)CC1 [SJ000247367] | −2.261
13 | Cc1cc(NC(=O)CN[C@H]2CCN(Cc3ccccc3)C2)c2ccccc2n1 [SJ000832405] | 4.364
14 | COc1ccc2nc3cc(Cl)ccc3c(NCCCNCc3cc(F)ccc3OC)c2c1 [SJ000520993] | −365.4
15 | CCCN(CCCNc1c2ccc(Cl)cc2nc2ccc(OC)cc12)Cc1cccc(C)c1 [SJ000520954] | −157.8
16 | COc1ccc2nc3cc(Cl)ccc3c(NCCCNCc3cc4ccccc4s3)c2c1 [SJ000521000] | −220.4
17 | Cc1cc(N2CCN(CC(O)COCC(C)C)CC2)c2ccccc2n1 (stereo not drawn) [SJ000227654] | −3.251
18 | CCc1nc2ccccc2c(NC(=O)CN2CCN(c3ccccc3)CC2)c1C [SJ000111681] | 6.894

Row | Structure (SMILES) | TR-FRET signal
19 | CCCCCN(CCCCNc1ccnc2cc(Cl)ccc12)Cc1ccccc1 [SJ000361196] | 19.1
20 | Clc1ccc2c(NCCCCN(Cc3ccccc3)Cc3cccs3)ccnc2c1 [SJ000312686] | 25.05
21 | CCCN(CCCCNc1ccnc2cc(Cl)ccc12)Cc1cc(F)ccc1OC [SJ000311202] | 5.396
22 | O=S(=O)(c1ccc(Cl)cc1)c1cnc2ccc(F)cc2c1N1CCN(c2ccccc2)CC1 [SJ000117055] | 2.112
23 | Clc1ccc2c(NCCCCN(Cc3ccccc3)Cc3ccc[nH]3)ccnc2c1 [SJ000312692] | 28.28
24 | COc1ccc2ncc(S(=O)(=O)c3ccc(C)cc3)c(N3CCN(c4ccccc4)CC3)c2c1 [SJ000117048] | −85.57
25 | COc1ccc2nc3cc(Cl)ccc3c(NCCCNCc3ccc(Br)o3)c2c1 [SJ000523030] | −219.4
26 | COc1ccc2ncc(S(=O)(=O)c3ccccc3)c(N3CCN(c4ccc(F)cc4)CC3)c2c1 [SJ000083978] | −133.1
27 | CCCN(CCCNc1c2ccc(Cl)cc2nc2ccc(OC)cc12)Cc1ccccc1 [SJ000520925] | −127.9
28 | Clc1ccc(CN(CCCCNc2ccnc3cc(Cl)ccc23)Cc2ccccc2)c(Cl)c1 [SJ000361207] | 35.43
29 | O=S(=O)(c1ccccc1)c1cnc2ccc(F)cc2c1N1CCN(c2ccc(F)cc2)CC1 [SJ000083980] | −11.08
30 | FC(F)(F)c1cc(CN(CCCCNc2ccnc3cc(Cl)ccc23)Cc2ccccc2)ccc1Cl [SJ000520466] | 25.28
31 | Cc1ccc(S(=O)(=O)c2cnc3ccc(F)cc3c2N2CCN(c3ccccc3)CC2)cc1C [SJ000117052] | −16.9
32 | CCN1CCN(c2c(S(=O)(=O)c3ccc(C)c(C)c3)cnc3ccc(F)cc23)CC1 [SJ000247345] | 1.118
33 | CCCN(CCCNc1c2ccc(Cl)cc2nc2ccc(OC)cc12)Cc1ccc2c(c1)OCO2 [SJ000520940] | −193.5
34 | CCOC(=O)c1cnc2c(C)cc(C)cc2c1NCCN(C)C [SJ000037396] | 4.92
35 | CCCN(CCCNc1c2ccc(Cl)cc2nc2ccc(OC)cc12)CCOCc1ccccc1 [SJ000522981] | −212.4

same assay, conditions: single point TR-FRET screening of quinoline compounds against MAGE-A11:PCF11; 15 μM

Row | Structure (SMILES) | TR-FRET signal
36 | Clc1cccc(Cl)c1Cc1ccc2c(NCCCNCc3ccco3)ccnc2c1 [SJ000311314] | 32.4
37 | CCCN(CCCNc1ccnc2cc(Cl)ccc12)Cc1ccccc1OC(F)(F)F [SJ000357595] | −21.87
38 | Fc1cccc(CN(CCCNc2ccnc3cc(Cl)ccc23)Cc2ccccc2)c1 [SJ000361176] | 20.36
39 | CCCN(CCCNc1ccnc2cc(C(F)(F)F)ccc12)Cc1ccc(Cl)cc1Cl [SJ000523078] | 3.83
40 | CCCN(CCCNc1ccnc2cc(Cl)ccc12)Cc1cc2ccccc2s1 [SJ000522993] | 5.864
41 | CCCN(CCCNc1ccnc2cc(Cl)ccc12)Cc1ccc(C)o1 [SJ000357437] | 20.15
42 | CCCN(CCCNc1ccnc2cc(Cl)ccc12)CC1CCOC1 (stereo not drawn) [SJ000523016] | 9.664
43 | CCCN(CCCNc1c2ccc(Cl)cc2nc2ccc(OC)cc12)Cc1ccc(Br)s1 [SJ000520924] | −56.45
44 | CCCN(CCCNc1ccnc2cc(C(F)(F)F)ccc12)Cc1c(C)cc(C)cc1C [SJ000361264] | 19.93
45 | CCCN(CCCNc1ccnc2cc(C(F)(F)F)ccc12)Cc1ccc(Cl)c(C(F)(F)F)c1 [SJ000521015] | 11.04
46 | CCCN(CCCNc1ccnc2cc(C(F)(F)F)ccc12)CC(C)CC (stereo not drawn) [SJ000523081] | 22.28
47 | CCCN(CCCNc1ccnc2cc(Cl)ccc12)Cc1nccs1 [SJ000357454] | 11.96
48 | CCCN(CCCNc1c2ccc(Cl)cc2nc2ccc(OC)cc12)Cc1ccncc1 [SJ000520918] | −1.797
49 | Cn1ccnc1CNCCCNc1ccnc2cc(Cl)ccc12 [SJ000521040] | 1.449
50 | CCCN(CCCNc1ccnc2cc(Cl)ccc12)CC1CCCCC1 [SJ000522751] | 15.63
51 | CCCN(CCCNc1ccnc2cc(Cl)ccc12)Cc1ccccc1C(F)(F)F [SJ000522745] | −38.03
52 | Clc1ccc2c(NCCCN(Cc3ccccc3)Cc3ccccn3)ccnc2c1 [SJ000312678] | −3.851
53 | Clc1ccc2c(NCCCNCc3ccc(Br)s3)ccnc2c1 [SJ000575193] | 15.34
54 | CCCCCCNCCCNc1ccnc2cc(Cl)ccc12 [SJ000361120] | 22.25
55 | CCCN(CCCNc1ccnc2cc(Cl)ccc12)Cc1ccc2ccccc2c1 [SJ000523040] | 32.85
56 | CCCN(CCCNc1c2ccc(Cl)cc2nc2ccc(OC)cc12)Cc1sccc1C [SJ000520921] | −83.81
57 | CCCN(CCCNc1ccnc2cc(C(F)(F)F)ccc12)Cc1cc(Br)cs1 [SJ000520478] | −9.243
58 | COC(=O)CCCCCNCCCNc1ccnc2cc(Cl)ccc12 [SJ000521021] | 39.12
59 | CCCN(CCCNc1ccnc2cc(C(F)(F)F)ccc12)Cc1ccccc1F [SJ000361274] | 19.22
60 | Clc1ccc2c(NCCCNCc3cncc(Br)c3)ccnc2c1 [SJ000521037] | 7.014
